Data from the NIST ThermoML archive (doi:10.1021/je060271a).

Details: 303.15 K, Liquid, Vibrating tube method

CCCCC(=O)OCC(COC(=O)CCCC)(COC(=O)CCCC)COC(=O)CCCC [pentaerythritol tetrapentanoate]
Details	mass density [kg/m3]
13763 kPa	1019.6
13796 kPa	1019.5
13829 kPa	1019.6
13863 kPa	1019.6
13902 kPa	1019.7
13936 kPa	1019.7
13971 kPa	1019.7
14011 kPa	1019.6
14045 kPa	1019.6
14080 kPa	1019.8
14120 kPa	1019.8
14154 kPa	1019.7
14189 kPa	1019.8
14231 kPa	1019.8
14265 kPa	1019.9
14300 kPa	1019.8
14344 kPa	1019.8
14378 kPa	1020
14414 kPa	1019.9
14458 kPa	1019.9
14494 kPa	1020
14532 kPa	1020
14574 kPa	1020.1
14612 kPa	1020.1
14649 kPa	1020.1
14687 kPa	1019.9
14731 kPa	1020.2
14769 kPa	1020.1
14808 kPa	1020.2
14853 kPa	1020.2
14892 kPa	1020.2
14933 kPa	1020.3
14974 kPa	1020.3
15014 kPa	1020.2
15058 kPa	1020.3
15098 kPa	1020.3
15146 kPa	1020.4
15187 kPa	1020.4
15226 kPa	1020.4
15275 kPa	1020.5
15316 kPa	1020.3
15358 kPa	1020.6
15400 kPa	1020.5
15450 kPa	1020.5
15495 kPa	1020.6
15540 kPa	1020.6
15586 kPa	1020.7
15638 kPa	1020.7
15671 kPa	1020.6
15699 kPa	1020.6
15733 kPa	1020.9
15763 kPa	1020.8
15791 kPa	1020.7
15826 kPa	1020.8
15856 kPa	1020.8
15887 kPa	1020.7
15921 kPa	1020.8
15952 kPa	1020.9
15981 kPa	1021
16011 kPa	1020.9
16047 kPa	1020.9
16078 kPa	1021.1
16109 kPa	1021
16146 kPa	1020.9
16177 kPa	1021
16215 kPa	1021
16248 kPa	1021.1
16278 kPa	1021
16303 kPa	1021.1
16331 kPa	1021.1
16354 kPa	1021.1
16378 kPa	1021
16406 kPa	1021.2
16430 kPa	1021
16454 kPa	1021.3
16479 kPa	1021.2
16508 kPa	1021.2
16532 kPa	1021.2
16556 kPa	1021.2
16585 kPa	1021.3
16610 kPa	1021.3
16633 kPa	1021.2
16663 kPa	1021.4
16688 kPa	1021.3
16712 kPa	1021.3
16737 kPa	1021.4
16765 kPa	1021.3
16791 kPa	1021.4
16815 kPa	1021.3
16845 kPa	1021.5
16869 kPa	1021.5
16898 kPa	1021.4
16924 kPa	1021.4
16949 kPa	1021.4
16980 kPa	1021.5
17005 kPa	1021.5
17032 kPa	1021.6
17057 kPa	1021.4
17088 kPa	1021.6
17112 kPa	1021.6
17144 kPa	1021.6
17170 kPa	1021.5
17196 kPa	1021.7
17222 kPa	1021.6
17253 kPa	1021.6
17279 kPa	1021.5
17310 kPa	1021.7
17337 kPa	1021.7
17364 kPa	1021.7
17396 kPa	1021.8
17422 kPa	1021.8
17449 kPa	1021.8
17476 kPa	1021.8
17509 kPa	1021.7
17535 kPa	1021.7
17563 kPa	1021.8
17596 kPa	1021.8
17623 kPa	1021.8
17656 kPa	1022
17684 kPa	1022
17713 kPa	1021.9
17742 kPa	1021.9
17771 kPa	1021.9
17800 kPa	1021.9
17834 kPa	1021.9
17862 kPa	1022
17892 kPa	1022
17920 kPa	1022
17954 kPa	1022.1
17983 kPa	1022.1
18012 kPa	1022.1
18047 kPa	1022.2
18076 kPa	1022.1
18105 kPa	1022.1
18142 kPa	1022.1
18171 kPa	1022.2
18200 kPa	1022.2
18230 kPa	1022.1
18265 kPa	1022.3
18295 kPa	1022.3
18325 kPa	1022.2
18360 kPa	1022.2
18390 kPa	1022.2
18421 kPa	1022.4
18457 kPa	1022.4
18488 kPa	1022.2
18520 kPa	1022.4
18551 kPa	1022.4
18587 kPa	1022.4
18618 kPa	1022.4
18650 kPa	1022.6
18687 kPa	1022.5
18717 kPa	1022.5
18749 kPa	1022.7
18787 kPa	1022.6
18819 kPa	1022.6
18850 kPa	1022.5
18887 kPa	1022.5
18919 kPa	1022.7
18951 kPa	1022.6
